Assay results: patent US20070161807A1, “Method for manufacturing optically pure coumaryl amino acids and the novel coumaryl aminoacids thus obtained” (INSERM (INSTITUT NATIONAL DE LA SANT'E ET DE LA RECHERCHE …, priority 2004, published 2007)

Test: Physicochemical properties: absorption and fluorescence (Table 1)
Conditions: for Abs. (nm): absorption wavelength; for Abs. (nm) / Em. (nm): determined in 95% ethanol; for Em. (nm): emission wavelength

SMILES	QY quantum yield	ε (cm^−1 M^−1) extinction coefficient [cm⁻¹ M⁻¹]	Abs. (nm)	Em. (nm)
N[C@@H](Cc1cc(=O)oc2cc(O)ccc12)C(=O)O.O=C(O)C(F)(F)F [Example 6, (1S)-1-carboxy-2-(7-hydroxy-2-oxo-2H-chromen-4-yl)-ethyl ammonium trifluoroacetate]	0.49	9000	329	464
COc1ccc2c(C[C@H](N)C(=O)O)cc(=O)oc2c1.CS(=O)(=O)O [Example 7, (1S)-1-carboxy-2-(7-methoxy-2-oxo-2H-chromen-4-yl)-ethyl ammonium methanesulfonate]	0.18	12000	324	383
COc1ccc2c(C[C@@H](N)C(=O)O)cc(=O)oc2c1.O=C(O)C(F)(F)F [Example 8, (1R)-1-carboxy-2-(7-methoxy-2-oxo-2H-chromen-4-yl)-ethyl ammonium trifluoroacetate]	0.15	14000	323	386
COc1cc2oc(=O)cc(C[C@H](N)C(=O)O)c2cc1OC.O=C(O)C(F)(F)F [Example 9, (1S)-1-carboxy-2-(6,7-dimethoxy-2-oxo-2H-chromen-4-yl)-ethyl ammonium trifluoroacetate]	0.60	12000	345	445
N[C@@H](Cc1cc(=O)oc2cc(O)c(Cl)cc12)C(=O)O.O=C(O)C(F)(F)F [Example 10, (1S)-1-carboxy-2-(6-chloro, 7-hydroxy-2-oxo-2H-chromen-4-yl)-ethyl ammonium trifluoroacetate]	0.54	10300	331	465
CCOc1ccc2c(C[C@H](N)C(=O)O)cc(=O)oc2c1.O=C(O)C(F)(F)F [Example 11, (1S)-1-carboxy-2-(7-ethoxy-2-oxo-2H-chromen-4-yl)-ethyl ammonium trifluoroacetate]	0.17	13300	325	387
N[C@@H](Cc1c[nH]c2ccccc12)C(=O)O [W, tryptophan, reference compound]	0.12	5300	278	352

Second part, the molecule after the results:

QY quantum yield	ε (cm^−1 M^−1) extinction coefficient [cm⁻¹ M⁻¹]	Abs. (nm)	Em. (nm)	SMILES
0.50	6800	329	421	COc1cc(O)c2c(C[C@H](N)C(=O)O)cc(=O)oc2c1.O=C(O)C(F)(F)F [Example 12, (1S)-1-carboxy-2-(5-hydroxy, 7-methoxy-2-oxo-2H-chromen-4-yl)-ethyl ammonium trifluoroacetate]
0.18	12700	323	421	COc1cc(O)cc2oc(=O)cc(C[C@H](N)C(=O)O)c12.O=C(O)C(F)(F)F [Example 13, (1S)-1-carboxy-2-(7-hydroxy, 5-methoxy-2-oxo-2H-chromen-4-yl)-ethyl ammonium trifluoroacetate]
0.39	11500	324	419	COc1cc(OC)c2c(C[C@H](N)C(=O)O)cc(=O)oc2c1.O=C(O)C(F)(F)F [Example 14, (1S)-1-carboxy-2-(5,7-dimethoxy-2-oxo-2H-chromen-4-yl)-ethyl ammonium trifluoroacetate]
	11800	327	463	N[C@@H](Cc1cc(=O)oc2cc(O)cc(O)c12)C(=O)O.O=C(O)C(F)(F)F [Example 15, (1S)-1-carboxy-2-(5,7-dihydroxy-2-oxo-2H-chromen-4-yl)-ethyl ammonium trifluoroacetate]
0.21	12500	321	380	COc1ccc2c(CC[C@H](N)C(=O)O)cc(=O)oc2c1.O=C(O)C(F)(F)F [Example 16, (1S)-1-carboxy-3-(7-methoxy-2-oxo-2H-chromen-4-yl)-propyl ammonium trifluoroacetate]
0.17	14600	322	381	COc1ccc2c(CC[C@H](N)C(=O)OCc3ccccc3)cc(=O)oc2c1.O=C(O)C(F)(F)F [Example 17, (1S)-1-benzyloxycarbonyl-3-(7-methoxy-2-oxo-2H-chromen-4-yl)-propyl ammonium trifluoroacetate]
0.13	1400	274	303	N[C@@H](Cc1ccc(O)cc1)C(=O)O [Y, tyrosine, reference compound]
